Earlier results on six molecules are cited in PMC2766259 (Synapse (New York, N.Y.), 2009).

Where two headings read alike, the source gives them in different places.

Data set [1] has as its system α4β2* nAChRs. To be noted: cited from earlier work.
The subject of data set [2] is α4β2* nAChRs. As to conditions: cited from earlier work. This is another data set of the same source.
Data set [3] concerns α4β2* nAChRs. As to conditions: human smokers, 2-[^18F]FA; ref Brody et al., 2006; cited from earlier work.
The subject of data set [4] is α4β2* nAChRs. To be noted: acute treatment, baboon, ref Kassiou et al., 2001, cited from earlier work.
Data set [5] has as its system α4β2* nAChRs. To be noted: in rats; ref Saji et al., 2002; cited from earlier work.
Data set [6] has as its system α4β2* nAChRs. To be noted: human nAChR imaging; ref Scheffel et al., 2000; Villemagne et al., 1998; cited from earlier work.

Regarding `[18F]c1ncccc1OC[C@@H]1CCN1` [2-[^18F]FA, 2-[^18F]fluoro-3-(2(S)-azetidinylmethoxy)pyridine, reference compound], the “Conclusion: safety and efficacy” value in the data set on α4β2* nAChRs [1] (2 monkeys, ref Kimes et al., 2003) was “• 2-[^18F]FA is safe and efficacious in monkeys and humans”; with α4β2* nAChRs [1] (ref Chefer et al., 1999) it was “• 2-[^18F]FA is safe and efficacious for brain imaging in monkeys”. Moreover, the “Conclusion: peaks” value is “• In baboons 2-[^18F]FA has lower peaks than [^18F]fluoronorchloroepibatidine. In a monkey 2-[^18F]FA has lower peaks than 5-[^123I]IA” in the data set on α4β2* nAChRs [1] (a monkey, ref Dollé et al., 1999) and “• In baboons 2-[^18F]FA has lower peaks than [^18F]fluoronorchloroepibatidine. In a monkey 2-[^18F]FA has lower peaks than 5-[^123I]IA” in the data set on α4β2* nAChRs [2] (in vivo).

Take `[18F]c1ccc(OC[C@@H]2CCN2)cn1` [6-[^18F]FA, 6-[^18F]fluoro-3-(2(S)-azetidinylmethoxy)pyridine]: the “Conclusion: safety and efficacy” value with α4β2* nAChRs [1] (ref Horti et al., 2000) was “• 6-[^18F]FA is safe and efficacious for brain imaging in monkeys”.

For the molecule `CN1CCC[C@H]1c1cccnc1` [(−)-nicotine], in the data set on α4β2* nAChRs [3], the “plasma nicotine level at uptake of half the α4β2* nAChRs” value is listed as 0.87 ng/mL. The results for the “reduction in α4β2* nAChR uptake” value with α4β2* nAChRs [4] (frontal cortex) and with α4β2* nAChRs [4] (thalamus) were 32% and 52%, respectively. In the data set on α4β2* nAChRs [5], the “effect on accumulation of 5-[^123I]IA in brain” value was “blocked in all brain regions”.

With `[11CH3]N1CCC[C@H]1c1cccnc1` [[^11C](S)-(−)-nicotine, reference compound], in the data set with α4β2* nAChRs [6], the non-specific binding entry is given as “high degree of non-specific binding”.

Turning to `[18F]c1cc(-c2cc(OC[C@@H]3CCN3)cnc2Cl)ccn1` [[^18F]NIDA522131, chloro-3-((2-(S)-azetidinyl)methoxy)-5-(2-[^18F]fluoropyridin-4-yl)pyridine], the “Conclusion: safety and efficacy” value in the data set on α4β2* nAChRs [1] (ref Chefer et al., 2008) is “• [^18 F]NIDA522131 is safe and efficacious for brain imaging in monkeys”.

Turning to `[76Br]c1ccc(C2CC3CCC2N3)cn1` (stereo not drawn) [[^76Br]BrPH, [^76Br]norchlorobromoepibatidine, reference compound], the “Conclusion: safety and efficacy” value in the data set with α4β2* nAChRs [2] (ref Kassiou et al., 2002) was “[^76Br]BrPH is safe and efficacious in baboons”.
